Measured values taken from patent publication US20070010429A1, “Phospholipid formulations and uses thereof in lung disease detection and treatment” (The Hospital For Sick Children, priority 2005, published 2007).
Read-outs that look alike come from different tables or passages of the source.

What was measured:
[1] = freeze fracture analysis; cited from earlier work
[2] = test system: newborn Wistar rats; conditions: high dose, short-term dexamethasone, age of 14 days; cited from earlier work
[3] = test system: neonatal rats; conditions: treated rats; day 10 control rats 9.0±0.4 microns
Description: BALF samples, containing 50 nM of PC, were extracted and lipids were dried under nitrogen. Lipid samples were then reconstituted in 1 ml of saline at 37° C. followed by bath sonication. Following one freeze-thaw cycle the vesicle size was determined by dynamic light scattering (21) using a Malvern Mastersizer X (Malvern Instruments Ltd., Worcestershire, United Kingdom).
To even further characterize this relationship, light scattering analysis was performed on liposomes formed from total lipids extracted from BALF.

[4] = test system: neonatal rats
Source text: Timed-pregnant female Wistar rats and C57/B16 mice were obtained from Charles River (St. Constant, Qc, Canada). All animal protocols were in accordance with Canadian Counsel of Animal Care guidelines and were approved by the Animal Care and Use Committee of the Hospital for Sick Children. Developmental profile: At fetal day 19 and 22 (term=23 days) the pregnant rat was anesthetized and the pups delivered by cesarean section, while postpartum rodents were removed from their mother directly before sacrifice. Dexamethasone treatment: Newborn Wistar rats were injected daily for 4 days with dexamethasone (Sabex, Boucherville, Quebec, Canada) diluted in isotonic saline starting at postnatal day 1 according to previously described protocols (17). Hyperoxia exposure: The oxygen treatment was performed by housing the rat pups with their mother in chambers containing either 21% or 60% oxygen, starting at day 1 until day of lavage (i.e. postnatal day 4, 7, 10 or 14) (18).
After sacrificing the animals, a needle (blunted tip) was inserted through a tracheostomy and the lungs were lavaged with a buffer composed of phosphate-buffered saline augmented with 0.05 mg/ml of 70 kDa dextran-FITC [Molecular probes, Burlington, ON, Canada]. The inert fluorescent marker was included to determine lavage recovery (see FIG. 4e).
BALF samples were spiked with 1 μg of deuterated dipalmitoyl-PC (16:0/16:0PC) (Avanti polar lipids, Alabaster Ala., USA) as an internal standard, and then extracted (19). Lipids were analyzed using an API4000 mass spectrometer [MDS SCIEX, Concord, Ontario, Canada) (20).
To determine the nature of this relationship, BALF samples were examined from two rat models of diminished alveolarization. The two models employed were postnatal exposure to either dexamethasone or 60% oxygen. Postnatal administration of dexamethasone to rats has been described to result in a reduced alveolarization (17, 39-41). In the present study, a high dose, short-term treatment with dexamethasone was used to induce reduced alveolarization in the animal.
Neonatal hyperoxia of mice and rats may also be used to induce diminished alveolarization (18, 42-44).

CCCCCCCCCCCCCCCC(=O)OC[C@H](COP(=O)([O-])OCC[N+](C)(C)C)OC(=O)CCCCCCCCCCCCCCC [16:0/16:0, Dipalmitoyl Phosphatidylcholine]
liposome radius compared to palmitoylmyristoyl-PC (16:0/14:0PC) liposomes [1]: three-fold greater radius

C[C@@H]1C[C@H]2[C@@H]3CCC4=CC(=O)C=C[C@]4(C)[C@@]3(F)[C@@H](O)C[C@]2(C)[C@@]1(O)C(=O)CO [dexamethasone, reference compound]
parenchymal complexity / lung alveoli compared to controls [2]: significant decrease in parenchymal complexity | average particle size of liposomes formed from BALF lipids [3]: 13.2±0.7 microns

O=O [60% oxygen, oxygen]
total PC in BALF ([4]; 60% oxygen from day 1, postnatal day 10): significant reduction | total PC in BALF ([4]; 60% oxygen from day 1, postnatal day 14): no longer significantly different | palmitoylmyristoyl-PC (16:0/14:0PC) in BALF ([4]; after 14 days of 60% oxygen exposure, only PC species reduced): significantly reduced | dipalmitoyl-PC (16:0/16:0PC) content in BALF ([4]; rats exposed to 60% oxygen): reduced | palmitoylmyristoyl-PC (16:0/14:0PC) content in BALF ([4]; rats exposed to 60% oxygen): reduced | palmitoylpalmitoleoyl-PC (16:0/16:1PC) content in BALF ([4]; rats exposed to 60% oxygen): reduced | average particle size of liposomes formed from BALF lipids [3]: 12.6±0.6 microns
